In publication PMC12195695, “Multifaceted Biological Activity of Rutin, Quercetin, and Quercetin’s Glucosides” (Molecules, 2025):
Where “and” joins values, the source holds several entries; their conditions need not be identical. Equal values may be shown once. Where a name gives a salt, the structure may show the parent alone. Read-outs that look alike come from different tables or passages of the source. Marks after values point to notes of the source that are not given here.

Legend:
[1] = Cyclic voltammetry: oxidation potential and antioxidant activity vs Trolox; type: physicochemical; conditions: for Antioxidant Activity: cyclic voltammetry, area under anodic wave, 0.1 mM compound, Trolox regression, n = 6; for Antioxidant power class based on first oxidation potential: classification according to Blasco et al. [51]
Method: A galvanostat G 750 (Gamry Ins., Warminster, PA, USA) with a conventional three-electrode system was used for the cyclic voltammetric experiments, with Ru, Q, Ru, Q4′G, Q3G, and Q34′G (0.1 mM in 80% methanol) or Trolox solutions (0.1–2.5 mM) mixed with 0.2 M sodium acetate–acetic buffer (pH 4.5 in 80% methanol) at a ratio of 1:1 (v/v), as has previously been described in detail. The cyclic voltammograms were acquired in the range of −100 to 1300 mV at a scanning rate of 100 mV s^−1.

[2] = target: T1, angiotensin-converting enzymes (ACEs) from porcine kidneys (EC 3.4.15.1) (Sus scrofa, UniProt F1RRW5); assay: biochemical
T1 construct: angiotensin-converting enzymes (ACEs) from porcine kidneys (EC 3.4.15.1); purchased Sigma (Sigma Chemical Company, Saint Louis, MO, USA); host or cells: porcine kidney
T1 sequence (F1RRW5 34-1309): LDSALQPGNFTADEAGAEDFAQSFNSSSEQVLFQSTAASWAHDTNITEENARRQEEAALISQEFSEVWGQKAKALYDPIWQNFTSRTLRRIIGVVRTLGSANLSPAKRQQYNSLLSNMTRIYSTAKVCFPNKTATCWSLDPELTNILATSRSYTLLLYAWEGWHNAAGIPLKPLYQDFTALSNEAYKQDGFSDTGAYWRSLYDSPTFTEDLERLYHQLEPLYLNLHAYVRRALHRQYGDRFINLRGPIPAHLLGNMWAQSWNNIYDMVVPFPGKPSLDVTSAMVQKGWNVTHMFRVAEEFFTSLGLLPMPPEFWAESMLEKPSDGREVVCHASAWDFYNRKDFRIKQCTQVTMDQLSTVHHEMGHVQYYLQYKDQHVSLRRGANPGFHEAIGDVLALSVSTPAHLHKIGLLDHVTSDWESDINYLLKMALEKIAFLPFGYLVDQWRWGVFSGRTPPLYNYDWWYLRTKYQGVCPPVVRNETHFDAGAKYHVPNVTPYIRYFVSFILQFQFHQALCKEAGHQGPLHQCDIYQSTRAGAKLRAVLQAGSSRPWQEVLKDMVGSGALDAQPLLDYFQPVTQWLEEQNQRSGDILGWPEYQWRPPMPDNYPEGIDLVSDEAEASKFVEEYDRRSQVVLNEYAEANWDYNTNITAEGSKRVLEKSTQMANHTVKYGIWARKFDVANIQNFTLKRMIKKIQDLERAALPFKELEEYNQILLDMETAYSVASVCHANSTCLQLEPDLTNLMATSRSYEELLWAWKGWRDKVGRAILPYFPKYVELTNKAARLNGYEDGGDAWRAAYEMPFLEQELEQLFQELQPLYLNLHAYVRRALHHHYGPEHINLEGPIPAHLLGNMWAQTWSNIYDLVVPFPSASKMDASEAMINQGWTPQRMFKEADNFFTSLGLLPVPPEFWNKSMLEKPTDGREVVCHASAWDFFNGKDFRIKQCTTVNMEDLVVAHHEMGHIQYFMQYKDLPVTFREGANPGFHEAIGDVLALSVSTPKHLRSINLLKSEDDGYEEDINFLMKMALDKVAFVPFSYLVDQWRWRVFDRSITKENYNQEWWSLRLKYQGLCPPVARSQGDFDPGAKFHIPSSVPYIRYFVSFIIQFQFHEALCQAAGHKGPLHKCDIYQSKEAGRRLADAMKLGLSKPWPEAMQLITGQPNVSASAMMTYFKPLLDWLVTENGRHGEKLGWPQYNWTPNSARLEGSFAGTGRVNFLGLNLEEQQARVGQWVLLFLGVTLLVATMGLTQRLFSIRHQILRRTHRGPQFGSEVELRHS
Method: Standards of rutin, quercetin, and quercetin’s glucosides were dissolved in 80% methanol. Each standard was diluted to various concentrations using deionized water to determine its ACE inhibitory activity, expressed as an IC50 value. The ACE stock solution was prepared by dissolving enzyme in glycerol at 50% with Buffer A (protein concentration approximately 150 μg/mL), whereas the working solution was prepared by the dilution of the stock solution with Buffer B to make a protein concentration of approximately 7.5 μg/mL. The substrate stock solution was prepared by dissolving the whole content (50 mg) of Abz-Gly-Phe (NO2)-Pro (Bachem) in 10.33 mL of Buffer C (concentration approximately 10 mM), while the working solution was prepared by the dilution of the substrate stock solution with Buffer C to make a final Abz-Gly-Phe (NO2)-Pro concentration of approximately 0.45 mM. […] The angiotensin-converting enzyme (ACE) inhibitory activity assay was conducted according to the method of Sentandreu and Toldra. The fluorescence generated was measured using a Tecan Infinite M1000 PRO multiscan microplate fluorometer (TK Biotech, Warsaw, Poland). To calculate the % of inhibition of ACE, the following equation was used: […] = 100 − (ΔRFUsample ∗ 100/ΔRFUnegative control) where ΔRFU = RFUat time 30 − RFUat time 0.
The IC50 value, indicating the sample concentration at a 50% inhibition of ACE activity, was determined using linear regression analysis of logarithmic plots. At least 3 replicates for each standard solution were conducted. Results were expressed as IC50 values.

[3] = test system: advanced glycation endproduct (AGE) formation in BSA/glucose model system; assay: Inhibition of AGE formation, BSA/glucose model system; type: biochemical; conditions: fluorescence, linear regression, read-out: IC50 against AGE formation, BSA/Glucose Model System
Method: (§1) The positive control aminoguanidine and standards of rutin, quercetin, and quercetin’s glucosides were dissolved in DMSO and then in a phosphate buffer. The inhibitory activity against the formation of AGEs was analyzed in BSA/glucose and BSA/MGO model systems, as reported by Thornalley, and the fluorescent intensity was measured. The percentage of inhibition of AGEs was calculated from the obtained fluorescence of the test solution with or without inhibitors.

[4] = test system: advanced glycation endproduct (AGE) formation in BSA/MGO model system; assay: Inhibition of AGE formation, BSA/MGO model system; type: biochemical; conditions: for IC50: BSA/MGO, fluorescence, linear regression, read-out: IC50 against AGE formation, BSA/MGO Model System; for anti-AGE activity higher in comparison to Ru / anti-AGE activity higher in relation to AG: BSA/MGO model system
Method: as §1

[5] = Cyclic voltammetry: oxidation potential and antioxidant activity vs Trolox; type: physicochemical; conditions: vs. Ag/AgCl, 50 mM acetate-acetic buffer (pH 5.5) in 80% methanol, scan rate 100 mV s^-1, n = 6
ACE = test system: ACE; parameters: method as in earlier work; conditions: same fluorimetric method; ref 30 (Guerrero et al.); read-out: IC50 for ACE inhibition (literature); cited from earlier work

Compound	Antioxidant Activity [1]	IC50 [2]	IC50 [3]	IC50 [4]	First Oxidation Potential [5]	IC50 (ACE)	Antioxidant power class based on first oxidation potential [1]	anti-AGE activity higher in comparison to Ru [4]	anti-AGE activity higher in relation to AG [4]	IC50 ([2]; IC50 for ACE inhibition, concentration range 1.0-0.01 mM, linear regression, n = 6)
O=c1c(O)c(-c2ccc(O)c(O)c2)oc2cc(O)cc(O)c12 [Q, quercetin]	3.92 ± 0.20 ^a mM Trolox	59.29 ± 0.48 µM	243 ± 12 µM	466 ± 17 µM	310 mV and 310 ± 4 ^e mV	43 µM	–	–	–	–
C[C@@H]1O[C@@H](OC[C@H]2O[C@@H](Oc3c(-c4ccc(O)c(O)c4)oc4cc(O)cc(O)c4c3=O)[C@H](O)[C@@H](O)[C@@H]2O)[C@H](O)[C@H](O)[C@H]1O [Ru, quercetin-3-O-rutinoside]	2.04 ± 0.07 ^c mM Trolox	121 ± 1.56 µM	197 ± 8 µM	413 ± 24 µM	410 mV and 410 ± 5 ^c mV	64 µM	intermediate potentials (compounds with intermediate potentials (0.3 V < Ep < 0.8 V))	–	–	–
N=C(N)NN [AG, aminoguanidine hydrochloride, reference compound]	–	–	432 ± 38 µM	531 ± 28 µM	–	–	–	–	–	–
O=c1c(O[C@@H]2O[C@H](CO)[C@@H](O)[C@H](O)[C@H]2O)c(-c2ccc(O[C@@H]3O[C@H](CO)[C@@H](O)[C@H](O)[C@H]3O)c(O)c2)oc2cc(O)cc(O)c12 [Q3,4′G, quercetin-3,4′-di-O-β-glucoside]	1.07 ± 0.05 ^d mM Trolox	115 ± 1.25 µM	89 ± 5 µM	324 ± 19 µM	800 mV and 800 ± 7 ^a mV	–	low antioxidant power (a compound with a low antioxidant power (0.8 V < Ep < 1.3 V))	27%	64%	–
O=c1c(O)c(-c2ccc(O[C@@H]3O[C@H](CO)[C@@H](O)[C@H](O)[C@H]3O)c(O)c2)oc2cc(O)cc(O)c12 [Q4′G, quercetin-4′-O-β-glucoside]	1.99 ± 0.09 ^c mM Trolox	143 ± 1.44 µM	259 ± 16 µM	370 ± 23 µM	482 mV and 482 ± 3 ^b mV	–	intermediate potentials (compounds with intermediate potentials (0.3 V < Ep < 0.8 V))	11%	44%	–
N[C@@H](CCC(=O)N[C@@H](CS)C(=O)NCC(=O)O)C(=O)O [GSH, reduced glutathione, reference compound]	–	–	–	–	–	–	–	–	–	41.7 µM
O=c1c(O[C@@H]2O[C@H](CO)[C@@H](O)[C@H](O)[C@H]2O)c(-c2ccc(O)c(O)c2)oc2cc(O)cc(O)c12 [Compound Q3G, quercetin-3-O-β-glucoside]	2.59 ± 0.04 ^b mM Trolox	135.2 ± 1.04 µM	47 ± 3 µM	389 ± 22 µM	390 mV and 390 ± 4 ^d mV	–	intermediate potentials (compounds with intermediate potentials (0.3 V < Ep < 0.8 V))	6%	37%	–
